Results taken from patent publication US20070129334A1, “Orally Active Purine-Based Inhibitors of Heat Shock Protein 90” (CONFORMA THERAPEUTICS CORPORATION, priority 2001, published 2007).
Read-outs that look alike come from different tables or passages of the source. Each block holds one compound with its values, some of them ahead of it.

Key:
Her-2 in MCF-7 cells = assay: HER2 inhibition assay (Her-2 degradation, MCF-7 cells, 24 incubation, flow cytometry); assay type: cell-based; conditions: Homo sapiens, MCF7, concentration necessary to degrade 50% of Her 2 expression
Protocol: MCF-7 cells are seeded in 24 well plates at a density of approximately 30,000 cells/well and allowed to grow for 16 hours in DMEM supplemented with 10% FBS. Drug is then added at a concentration range of 100 uM to 0.01 uM. Cells are incubated for an additional […]. Drug treated cells and untreated control cells are trypsinized, and incubated at room temperature for 15 minutes with anti Her-2 neu Ab conjugated with phycoerythrin (Becton Dickinson, San Jose Calif.; Cat no. 340552) at a concentration of 0.25 ug/ml, or non-specific control IgG1 conjugated with phycoerythrin (Becton Dickinson, San Jose Calif.; Cat no. 340761). Samples were analyzed using a FACS Calibur flow cytometer (Becton Dickinson) equipped with Argon-ion laser that which emits 15 mW of 488 nm light for excitation of the phycoerythrin fluorochrome. 10,000 events were collected per sample. A fluorescence histogram was generated and the mean fluorescence intensity (mfi) of each sample was determined using Cellquest software. The background was defined as the mfi generated from cells incubated with control IgG, and was subtracted from each sample stained with the HER-2/neu Ab Percent degradation of Her-2 was calculated as follows: % Her-2 degradation=(mfi HER-2 sample)/(mfi HER-2 untreated cells)×100
The compounds in the table below were prepared as described above and evaluated for Her-2 degradation ability based on the above assay (example 314).

[1] = tested on: Purified native Hsp90 protein (mixture of alpha and beta) from HeLa cells; assay: Fluorescence-based competitive binding assay for biotinylated-geldanamycin to purified Hsp90; design: species or system human; conditions: HSP90 binding ability; competition with biotin-GM
[2] = tested on: HER-2 receptor (Hsp90 client) in MCF-7 cells; assay: HER-2 degradation assay (MCF-7 cells, 16 h, phycoerythrin-labeled antibody and flow cytometry); assay type: cell-based, human
[3] = Solubility in simulated gastric fluid, simulated intestinal fluid and serum; assay type: physicochemical; conditions: for Serum (PH 7.4): solubility in serum; for Gastric (PH 2.0): solubility in simulated gastric fluid; for Intestinal (PH 6.5): solubility in simulated intestinal fluid
[4] = Homo sapiens, MCF7, MCF-7 cells, 16 h, average of at least three observations, read-out: HER-2 IC50
[5] = Homo sapiens, MCF7, read-out: HER-2 IC50(nM)
[6] = Homo sapiens, MCF7, benzothiozole moiety SAR, MCF-7, read-out: HER-2 IC50
[7] = Homo sapiens, MCF7, read-out: HER-2

Structure (SMILES): C#CCCCn1c(Cc2cc(OC)ccc2OC)nc2c(N)nc(F)nc21 [Compound 2, 8-(2,5-dimethoxybenzyl)-N9-pentynyl-2-fluoro adenine]
- IC50 (Her-2 in MCF-7 cells): 600 nM

Structure (SMILES): COc1ccc(OC)c(Cc2nc3c(N)nc(F)nc3n2CCC=C(C)C)c1 [Compound 3, 8-(2,5-Dimethoxy-benzyl)-2-fluoro-9-(4-methyl-pent-3-enyl)-9H-purin-6-ylamine]
- IC50 (Her-2 in MCF-7 cells): 500 nM
- IC50 [1]: 1100 nM

Structure (SMILES): COc1ccc(OC)c(Cc2nc3c(N)nc(F)nc3n2CCCCCBr)c1 [Compound 5, 8-(2,5-Dimethoxy-benzyl)-2-fluoro-9-(5-bromo-pentyl)-9H-purin-6-ylamine]
- IC50 (Her-2 in MCF-7 cells): 1000 nM
- IC50 [1]: 2000 nM

Structure (SMILES): C#CCCCn1c(Cc2cc(OC)ccc2OC)nc2c(N)ncnc21 [Compound 8, 8-(2,5-Dimethoxy-benzyl)-9-pent-4-ynyl-9H-purin-6-ylamine]
- IC50 (Her-2 in MCF-7 cells): 1500 nM
- IC50 [1]: 6000 nM

Structure (SMILES): CCCCn1c(Cc2cc(OC)ccc2I)nc2c(N)ncnc21 [Compound 20, 9-Butyl-8-(2-iodo-5-methoxy-benzyl)-9H-purin-6-ylamine]
- IC50 [2, 4]: 5000 nM

Structure (SMILES): CCCCn1c(Cc2cc(OC)ccc2Br)nc2c(N)ncnc21 [Compound 23, 8-(2-Bromo-5-methoxy-benzyl)-9-butyl-9H-purin-6-ylamine]
- IC50 [2, 4]: 8000 nM

Structure (SMILES): CCCCn1c(Sc2cc(OC)ccc2OC)nc2c(N)ncnc21 [Compound 43, 9-Butyl-8-(2,5-dimethoxy-phenylsulfanyl)-9H-purin-6-ylamine]
- IC50 [2, 4]: 3500 nM

Structure (SMILES): C#CCCCn1c(Sc2cc(OC)ccc2I)nc2c(N)nc(F)nc21 [Compound 68, 2-Fluoro-8-(2-iodo-5-methoxy-phenylsulfanyl)-9-pent-4-ynyl-9H-purin-6-ylamine]
- IC50 [2, 4]: 360 nM

Structure (SMILES): CCCCn1c(Sc2nc3cccc(Br)c3s2)nc2c(N)ncnc21 [Compound 171, 8-(7-Bromo-benzothiazol-2-ylsulfanyl)-9-butyl-9H-purine-6-ylamine]
- IC50 [2, 5]: 330 nM

Structure (SMILES): CCCCn1c(Sc2nc3cccc(C)c3s2)nc2c(N)ncnc21 [Compound 172, 9-Butyl-8-(7-methyl-benzothiazol-2-ylsulfanyl)-9H-purine-6-ylamine]
- IC50 [2, 5]: 300 nM

Structure (SMILES): CCCCn1c(Sc2nc3cccc(OC)c3s2)nc2c(N)ncnc21 [Compound 173, 9-Butyl-8-(7-methoxy-benzothiazol-2-ylsulfanyl)-9H-purine-6-ylamine]
- IC50 [2, 5]: 190 nM
- Serum (PH 7.4) [3]: 18 µg/mL
- Gastric (PH 2.0) [3]: 35 µg/mL
- Intestinal (PH 6.5) [3]: 2 µg/mL

Structure (SMILES): CCCCn1c(Sc2nc3cccc(OCC)c3s2)nc2c(N)ncnc21 [Compound 174, 9-Butyl-8-(7-ethoxy-benzothiazol-2-ylsulfanyl)-9H-purine-6-ylamine]
- IC50 [2, 6]: 100000 nM

Structure (SMILES): CCCCn1c(Sc2nc3cccc(F)c3s2)nc2c(N)ncnc21 [Compound 175, 9-Butyl-8-(7-fluoro-benzothiazol-2-ylsulfanyl)-9H-purine-6-ylamine]
- IC50 [2, 5]: 200 nM

Structure (SMILES): CCCCn1c(Sc2nc3cncc(Cl)c3s2)nc2c(N)ncnc21 [Compound 177, 9-Butyl-8-(7-chloro-thiazole[4,5-c]pyridin-2-ylsulfanyl)-9H-purin-6-ylamine]
- IC50 ([2]; pyridothiazole moiety SAR, HER-2 degradation activity, read-out: HER-2): 280 nM

Structure (SMILES): CCCCn1c(Sc2nc3ccccc3s2)nc2c(N)ncnc21 [Compound 178, 8-(Benzothiazol-2-ylsulfanyl)-9-butyl-9H-purine-6-ylamine]
- IC50 [2, 6]: 5000 nM

Structure (SMILES): CCCCn1c(Sc2nc3ccc(Cl)cc3s2)nc2c(N)ncnc21 [Compound 179, 9-Butyl-8-(6-chloro-benzothiazol-2-ylsulfanyl)-9H-purine-6-ylamine]
- IC50 [2, 6]: 7000 nM

Structure (SMILES): CCCCn1c(Sc2nc3cc(Cl)ccc3s2)nc2c(N)ncnc21 [Compound 180, 9-Butyl-8-(5-chloro-benzothiazol-2-ylsulfanyl)-9H-purine-6-ylamine]
- IC50 [2, 6]: 20000 nM

Structure (SMILES): CCCCn1c(Sc2nc3c(Cl)cccc3s2)nc2c(N)ncnc21 [Compound 181, 9-Butyl-8-(4-chloro-benzothiazol-2-ylsulfanyl)-9H-purine-6-ylamine]
- IC50 [2, 6]: 15000 nM

Structure (SMILES): CCCCn1c(Sc2nc3ccc(Cl)c(Cl)c3s2)nc2c(N)ncnc21 [Compound 185, 9-Butyl-8-(6,7-dichloro-benzothiazol-2-ylsulfanyl)-9H-purine-6-ylamine]
- IC50 [2, 6]: 25000 nM

Structure (SMILES): CC(=O)OCCn1c(Sc2nc3cncc(Br)c3s2)nc2c(N)ncnc21 [Compound 204, Acetic acid 2-[6-amino-8-(7-bromo-thiazole[4,5-c]pyridin-2-ylsulfanyl)-purin-9-yl]-ethyl ester]
- IC50 ([2]; read-out: HER-2): 30 nM
- Gastric (PH 2.0) [3]: 98.5 µg/mL

Structure (SMILES): CC(=O)OCCCn1c(Sc2nc3cncc(Cl)c3s2)nc2c(N)ncnc21 [Compound 205, Acetic acid 3-[6-amino-8-(7-chloro-thiazolo[4,5-c]pyridin-2-ylsulfanyl)-purin-9-yl]-propyl ester]
- IC50 [2, 7]: 170 nM

Continued, values first:

- IC50 [2, 7]: 400 nM
Structure (SMILES): CCCCn1c(Sc2nc3cncc(Br)c3s2)nc2c(N)ncnc21 [Compound 207]

- IC50 [2, 7]: 200 nM
Structure (SMILES): CCn1c(Sc2nc3cccc(Cl)c3s2)nc2c(N)ncnc21 [Compound 229, 9-ethyl-8-(7-chloro-benzothiazol-2-ylsulfanyl)-9H-purine-6-ylamine]

- IC50 [2, 7]: 250 nM
Structure (SMILES): CCCn1c(Sc2nc3cccc(Cl)c3s2)nc2c(N)ncnc21 [Compound 231, 9-Propyl-8-(7-chloro-benzothiazol-2-ylsulfanyl)-9H-purine-6-ylamine]

- IC50 [2, 7]: 180 nM
- IC50 [2, 5]: 180 nM
Structure (SMILES): CCCCn1c(Sc2nc3cccc(Cl)c3s2)nc2c(N)ncnc21 [Compound 232, 9-Butyl-8-(7-chloro-benzothiazol-2-ylsulfanyl)-9H-purine-6-ylamine]

- IC50 [2, 7]: 700 nM
Structure (SMILES): CCCCCn1c(Sc2nc3cccc(Cl)c3s2)nc2c(N)ncnc21 [Compound 233, 9-Pentyl-8-(7-chloro-benzothiazol-2-ylsulfanyl)-9H-purine-6-ylamine]

- IC50 [2, 7]: 150 nM
Structure (SMILES): CC(=O)OCCn1c(Sc2nc3cccc(Cl)c3s2)nc2c(N)ncnc21 [Compound 241, Acetic acid 2-[6-amino-8-(7-chloro-benzothiazol-2-ylsulfanyl)-purin-9-yl]-ethyl ester]

- IC50 [2, 7]: 130 nM
- Gastric (PH 2.0) [3]: 46 µg/mL
- Intestinal (PH 6.5) [3]: 3 µg/mL
Structure (SMILES): CC(=O)OCCCCn1c(Sc2nc3cccc(Cl)c3s2)nc2c(N)ncnc21 [Compound 243, Acetic acid 4-[6-amino-8-(7-chloro-benzothiazol-2-ylsulfanyl)-purin-9-yl]-butyl ester]

- IC50 [2, 7]: 300 nM
Structure (SMILES): Nc1ncnc2c1nc(Sc1nc3cccc(Cl)c3s1)n2CCO [Compound 244, 2-[6-Amino-8-(7-chloro-benzothiazol-2-ylsulfanyl)-purin-9-yl]-ethanol]

- IC50 [2, 7]: 150 nM
Structure (SMILES): Nc1ncnc2c1nc(Sc1nc3cccc(Cl)c3s1)n2CCCO [Compound 245]

- IC50 [2, 7]: 150 nM
Structure (SMILES): Nc1ncnc2c1nc(Sc1nc3cccc(Cl)c3s1)n2CCCCO [Compound 246, 4-[6-Amino-8-(7-chloro-benzothiazol-2-ylsulfanyl)-purin-9-yl]-butan-1-ol]

- IC50 [2, 7]: 35 nM
- Serum (PH 7.4) [3]: 4.9 µg/mL
- Intestinal (PH 6.5) [3]: 6 µg/mL
Structure (SMILES): CC(C)(C)CNCCn1c(Sc2nc3cccc(Cl)c3s2)nc2c(N)ncnc21 [Compound 247, 8-(7-Chloro-benzothiazol-2-ylsulfanyl)-9-[2-(2,2-dimethyl-propylamino)-ethyl]-9H-purin-6-yl amine]

- IC50 [2, 7]: 150 nM
- Serum (PH 7.4) [3]: 198.7 µg/mL
- Intestinal (PH 6.5) [3]: 137.7 µg/mL
Structure (SMILES): CC(C)(C)NCCCn1c(Sc2nc3cccc(Cl)c3s2)nc2c(N)ncnc21 [Compound 253, 9-(3-tert-Butylamino-propyl)-8-(7-chloro-benzothiazol-2-ylsulfanyl)-9H-purin-6-yl amine]

- IC50 [2, 7]: 140 nM
Structure (SMILES): CC(C)(C)NCCn1c(Sc2nc3cccc(Cl)c3s2)nc2c(N)ncnc21 [Compound 265, 9-(2-tert-Butylamino-ethyl)-8-(7-chloro-benzothiazole-2-ylsulfanyl)-9H-purin-6-yl amine]

- IC50 [2, 7]: 170 nM
Structure (SMILES): CC(C)NCCCn1c(Sc2nc3cccc(Cl)c3s2)nc2c(N)ncnc21 [Compound 266, 8-(7-Chloro-benzothiazol-2-ylsulfanyl)-9-(3-isopropylamino-propyl)-9H-purin-6-yl amine]

- IC50 [2, 7]: 250 nM
Structure (SMILES): Nc1ncnc2c1nc(Sc1nc3cccc(Cl)c3s1)n2CCN1CCOCC1 [Compound 270, 8-(7-Chloro-benzothiazol-2-ylsulfanyl)-9-(2-morpholin-4-yl-ethyl)-9H-purin-6-ylamine]

- IC50 [2, 7]: 110 nM
- Serum (PH 7.4) [3]: 31.3 µg/mL
- Gastric (PH 2.0) [3]: 58.7 µg/mL
- Intestinal (PH 6.5) [3]: 4.4 µg/mL
Structure (SMILES): N#CCCCCn1c(Sc2nc3cccc(Cl)c3s2)nc2c(N)ncnc21 [Compound 284, 5-[6-Amino-8-(7-chloro-benzothiazol-2-ylsulfanyl)-purin-9-yl]-pentanenitrile]
